The data set has as its system tobacco budworm (Heliothis virescens [Fabricius]). Briefly: surface-treated diet test against tobacco budworm. The conditions noted are these: for Percent Growth Inhibition: inhibition of insect weight relative to untreated controls. In kind it is in vivo. How it is done:
Candidate insecticides were evaluated for activity against the tobacco budworm (Heliothis virescens [Fabricius]) in a surface-treated diet test.
In this test one mL of molten (65-70° C.) wheat germ-based artificial diet was pipetted into each well of a four by six (24 well) multi-well plate (ID# 430345-15.5 mm dia.×17.6 mm deep; Corning Costar Corp., One Alewife Center, Cambridge, Mass. 02140). The diet was allowed to cool to ambient temperature before treatment with candidate insecticide.
For a determination of insecticidal activity, solutions of the candidate insecticides were prepared for testing using a Packard 204DT Multiprobe® Robotic System (Packard Instrument Company, 800 Research Parkway, Meriden, Conn. 06450), in which the robot first diluted a standard 50 millimolar DMSO solution of candidate insecticide with a 1:1 water/acetone solution (V/V) in a ratio of 1:7 stock solution to water/acetone. The robot subsequently pipetted 40 microliters of the so-prepared solution onto the surface of the diet in each of three wells in the 24 multi-well plate. The process was repeated with solutions of seven other candidate insecticides. Once treated, the contents of the multi-well plate were allowed to dry, leaving 0.25 millimoles of candidate insecticide on the surface of the diet, or a concentration of 0.25 millimolar. Appropriate untreated controls containing only DMSO on the diet surface were also included in this test.
For evaluations of the insecticidal activity of a candidate insecticide at varying rates of application, the test was established as described above using sub-multiples of the standard 50 millimolar DMSO solution of candidate insecticide. For example, the standard 50 millimolar solution was diluted by the robot with DMSO to give 5, 0.5, 0.05, 0.005, 0.0005 millimolar, or more dilute solutions of the candidate insecticide. In these evaluations there were six replicates of each rate of application placed on the surface of the diet in the 24 multi-well plate, for a total of four rates of application of candidate insecticide in each plate.
In each well of the test plate was placed one second instar tobacco budworm larvae, each weighing approximately five milligrams. After the larvae were placed in each well, the plate was sealed with clear polyfilm adhesive tape. The tape over each well was perforated to ensure an adequate air supply. The plates were then held in a growth chamber at 25° C. and 60% relative humidity for five days (light 14 hours/day).
After the five-day exposure period insecticidal activity for each rate of application of candidate insecticide was assessed as percent inhibition of insect weight relative to the weight of insects from untreated controls, and percent mortality when compared to the total number of insects infested.
The test compounds of formula I are identified by numbers that correspond to those in Table 1.

Where [1] appears, read: 0.25 millimolar on the surface of the diet, second instar larvae, five-day exposure, compared to the total number of insects infested.
Setting [2] is: 0.25 millimolar on the surface of the diet, second instar larvae, five-day exposure.

In the case of `CN1CCN(C)C1c1ccc(CN2CCC(C(O)(c3ccc(OC(F)(F)F)cc3)c3ccc(OC(F)(F)F)cc3)CC2)cc1` [Compound 25], under setting [1], the “Percent Mortality” value stood at 100%. The “Percent Growth Inhibition” value under setting [2] worked out at 100%.
As to `[O-][N+]1(Cc2ccc(C3OCC(CN4CCCC4)O3)cc2)CCC(C(O)(c2ccc(OC(F)(F)F)cc2)c2ccc(OC(F)(F)F)cc2)CC1` (centres unmarked) [Compound 110], the “Percent Mortality” value under setting [1] was 100%. In addition, the “Percent Growth Inhibition” value under setting [2] is given as 100%.
Regarding `COc1ccc(C2(COc3ccc(CN4CCC(C(O)(c5ccc(OC(F)(F)F)cc5)c5ccc(OC(F)(F)F)cc5)CC4)cc3)OCCO2)cc1` [Compound 192], the “Percent Mortality” value under setting [1] stood at 100%. Also, under setting [2], the “Percent Growth Inhibition” value was 100%.
With `OC(c1ccc(OC(F)(F)F)cc1)(c1ccc(OC(F)(F)F)cc1)C1CCN(Cc2ccc(C3(c4ccoc4)OCCO3)cc2)CC1` [Compound 99], the “Percent Mortality” value under setting [1] was 100%. The “Percent Growth Inhibition” value under setting [2] is recorded as 100%.
On to `[O-][N+]1(Cc2ccc(C3(Cc4ccccc4)OCCO3)cc2)CCC(C(O)(c2ccc(OC(F)(F)F)cc2)c2ccc(OC(F)(F)F)cc2)CC1` (centres unmarked) [Compound 65], for which the “Percent Mortality” value under setting [1] was 67%. Further, the “Percent Growth Inhibition” value under setting [2] is reported as 100%.
With `C[C@H]1OC(c2ccc(CN3CCC(C(O)(c4ccc(OC(F)(F)F)cc4)c4ccc(OC(F)(F)F)cc4)CC3)cc2)O[C@@H]1C` (relative stereo) [Compound 120], the “Percent Mortality” value under setting [1] was found to be 100%. For the same molecule, under setting [2], the “Percent Growth Inhibition” value is given as 100%.
In the case of `CCC1COC(c2ccc(CN3CCC(C(O)(c4ccc(OC(F)(F)F)cc4)c4ccc(OC(F)(F)F)cc4)CC3)cc2)O1` (centres unmarked) [Compound 48], under setting [1], the “Percent Mortality” value came to 100%. Moreover, the “Percent Growth Inhibition” value under setting [2] is reported as 100%.
`OC(c1ccc(Cl)c(Cl)c1)(c1ccc(Cl)c(Cl)c1)C1CCN(Cc2ccc(C3OCCO3)cc2)CC1` [Compound 145]: the “Percent Mortality” value under setting [1] was found to be 100%. Besides, the “Percent Growth Inhibition” value under setting [2] amounted to 100%.
On to `COCC1COC(c2ccc(CN3CCC(C(O)(c4ccc(OC(F)(F)F)cc4)c4ccc(OC(F)(F)F)cc4)CC3)cc2)O1` (centres unmarked) [Compound 51], for which the “Percent Mortality” value under setting [1] worked out at 100%. In addition, the “Percent Growth Inhibition” value under setting [2] is 100%.
As to `OC(c1ccc(OC(F)(F)F)cc1)(c1ccc(OC(F)(F)F)cc1)C1CCN(Cc2ccc(C3COCO3)cc2)CC1` (centres unmarked) [Compound 103], under setting [1], the “Percent Mortality” value is reported as 100%. In addition, the “Percent Growth Inhibition” value under setting [2] was 100%.
In the case of `[O-][N+]1(Cc2ccc(C3OCCC(c4ccccc4)O3)cc2)CCC(C(O)(c2ccc(OC(F)(F)F)cc2)c2ccc(OC(F)(F)F)cc2)CC1` (centres unmarked) [Compound 79], the “Percent Mortality” value under setting [1] was 100%. For the same molecule, under setting [2], the “Percent Growth Inhibition” value amounted to 100%.
As to `[O-][N+]1(Cc2ccc(OCC3(c4ccccc4)OCCO3)cc2)CCC(C(O)(c2ccc(OC(F)(F)F)cc2)c2ccc(OC(F)(F)F)cc2)CC1` (centres unmarked) [Compound 185], the “Percent Mortality” value under setting [1] was 100%. For the same molecule, the “Percent Growth Inhibition” value under setting [2] stood at 100%.
Regarding `CC1(C)COC(c2ccc(C[N+]3([O-])CCC(C(O)(c4ccc(OC(F)(F)F)cc4)c4ccc(OC(F)(F)F)cc4)CC3)cc2)O1` (centres unmarked) [Compound 112], the “Percent Mortality” value under setting [1] worked out at 100%. Also, the “Percent Growth Inhibition” value under setting [2] worked out at 100%.
In the case of `CC1COC(c2ccc(CN3CCC(C(O)(c4ccc(OC(F)(F)F)cc4)c4ccc(OC(F)(F)F)cc4)CC3)cc2)O1` (centres unmarked) [Compound 3], the “Percent Mortality” value under setting [1] came to 100%. In addition, the “Percent Growth Inhibition” value under setting [2] is 100%.
For the molecule `C=CC1COC(c2ccc(C[N+]3([O-])CCC(C(O)(c4ccc(OC(F)(F)F)cc4)c4ccc(OC(F)(F)F)cc4)CC3)cc2)O1` (centres unmarked) [Compound 86], the “Percent Mortality” value under setting [1] is recorded as 100%. Further, the “Percent Growth Inhibition” value under setting [2] is recorded as 100%.
With `[O-][N+]1(Cc2ccc(C3O[C@H]4CCC[C@H]4O3)cc2)CCC(C(O)(c2ccc(OC(F)(F)F)cc2)c2ccc(OC(F)(F)F)cc2)CC1` (some centres unmarked) [Compound 123], the “Percent Mortality” value under setting [1] was determined as 100%. Besides, the “Percent Growth Inhibition” value under setting [2] is 100%.
With `Cc1cc(CN2CCC(C(O)(c3ccc(OC(F)(F)F)cc3)c3ccc(OC(F)(F)F)cc3)CC2)ccc1C1OCCO1` [Compound 169], the “Percent Growth Inhibition” value under setting [2] is 100%. Where the note is “in vivo”, the “Percent Mortality” value came out at 100%.
Take `OC(c1ccc(OC(F)(F)F)cc1)(c1ccc(OC(F)(F)F)cc1)C1CCN(Cc2ccc(C3O[C@H]4CCC[C@H]4O3)cc2)CC1` (some centres unmarked) [Compound 119]: under setting [1], the “Percent Mortality” value is on record as 100%. The “Percent Growth Inhibition” value under setting [2] worked out at 100%.
Turning to `CC1CCOC(c2ccc(CN3CCC(C(O)(c4ccc(OC(F)(F)F)cc4)c4ccc(OC(F)(F)F)cc4)CC3)cc2)O1` (centres unmarked) [Compound 47], the “Percent Mortality” value under setting [1] was 67%. In addition, the “Percent Growth Inhibition” value under setting [2] amounted to 100%.
For `CC1(C)OCC(COc2ccc(C[N+]3([O-])CCC(C(O)(c4ccc(OC(F)(F)F)cc4)c4ccc(OC(F)(F)F)cc4)CC3)cc2)O1` (centres unmarked) [Compound 190, bis[4-(trifluoromethoxy)phenyl][1-({4-[(2,2-dimethyl-(1,3-dioxolan-4-yl))methoxy]phenyl}methyl)(4-piperidyl)]methan-1-ol, N-oxide] the same measures were 100% and 100%.
In the case of `[O-][N+]1(Cc2ccc(C3OCC(c4ccccc4)O3)cc2)CCC(C(O)(c2ccc(OC(F)(F)F)cc2)c2ccc(OC(F)(F)F)cc2)CC1` (centres unmarked) [Compound 60], under setting [1], the “Percent Mortality” value was determined as 100%. In addition, the “Percent Growth Inhibition” value under setting [2] came out at 100%.
For `CC(=O)N1CCSC1c1ccc(CN2CCC(C(O)(c3ccc(OC(F)(F)F)cc3)c3ccc(OC(F)(F)F)cc3)CC2)cc1` (centres unmarked) [Compound 71], under setting [1], the “Percent Mortality” value was determined as 33%. Further, under setting [2], the “Percent Growth Inhibition” value came to 100%.
Regarding `CC(C)N1CCOC1c1ccc(CN2CCC(C(O)(c3ccc(OC(F)(F)F)cc3)c3ccc(OC(F)(F)F)cc3)CC2)cc1` (centres unmarked) [Compound 97], the “Percent Mortality” value under setting [1] was determined as 50%. For the same molecule, the “Percent Growth Inhibition” value under setting [2] was 100%.
The like results for `CCCC1COC(c2ccc(CN3CCC(C(O)(c4ccc(OC(F)(F)F)cc4)c4ccc(OC(F)(F)F)cc4)CC3)cc2)O1` (centres unmarked) [Compound 72] were, in that order, 100% and 100%.
For `[O-][N+]1(Cc2ccc(C3OCC=CCO3)cc2)CCC(C(O)(c2ccc(OC(F)(F)F)cc2)c2ccc(OC(F)(F)F)cc2)CC1` (centres unmarked) [Compound 63] the same measures were 100% and 100%.
The like results for `OC(c1ccc(OC(F)(F)F)cc1)(c1ccc(OC(F)(F)F)cc1)C1CCN(Cc2ccc(C3SCCS3)cc2)CC1` [Compound 15] were, in that order, 100% and 100%.
On to `[O-][N+]1(Cc2ccc(C3(c4ccoc4)OCCO3)cc2)CCC(C(O)(c2ccc(OC(F)(F)F)cc2)c2ccc(OC(F)(F)F)cc2)CC1` (centres unmarked) [Compound 101], for which, under setting [1], the “Percent Mortality” value is recorded as 100%. For the same molecule, the “Percent Growth Inhibition” value under setting [2] stood at 100%.
On to `CN1CCOC1c1ccc(CN2CCC(C(O)(c3ccc(OC(F)(F)F)cc3)c3ccc(OC(F)(F)F)cc3)CC2)cc1` (centres unmarked) [Compound 90], for which the “Percent Mortality” value under setting [1] came to 100%. Also, the “Percent Growth Inhibition” value under setting [2] turned out to be 100%.
Turning to `OC(c1ccc(OC(F)(F)F)cc1)(c1ccc(OC(F)(F)F)cc1)C1CCN(Cc2ccc(C3OCCO3)c(C(F)(F)F)c2)CC1` [Compound 172], the “Percent Mortality” value under setting [1] stood at 100%. Moreover, the “Percent Growth Inhibition” value under setting [2] stood at 100%.
As for `CCCCN1CCSC1c1ccc(CN2CCC(C(O)(c3ccc(OC(F)(F)F)cc3)c3ccc(OC(F)(F)F)cc3)CC2)cc1` (centres unmarked) [Compound 59], the “Percent Mortality” value under setting [1] is 100%. Also, the “Percent Growth Inhibition” value under setting [2] came out at 100%.
On to `CC1(C)OCC(c2ccc(CN3CCC(C(O)(c4ccc(OC(F)(F)F)cc4)c4ccc(OC(F)(F)F)cc4)CC3)cc2)O1` (centres unmarked) [Compound 76], for which the “Percent Mortality” value under setting [1] stood at 100%. For the same molecule, under setting [2], the “Percent Growth Inhibition” value is listed as 100%.
Consider `CC1CC(C)(C)OC(c2ccc(C[N+]3([O-])CCC(C(O)(c4ccc(OC(F)(F)F)cc4)c4ccc(OC(F)(F)F)cc4)CC3)cc2)O1` (centres unmarked) [Compound 80], for which the “Percent Mortality” value under setting [1] is on record as 100%. Under setting [2], the “Percent Growth Inhibition” value came out at 100%.
With `CC1COC(c2ccc(C[N+]3([O-])CCC(C(O)(c4ccc(OC(F)(F)F)cc4)c4ccc(OC(F)(F)F)cc4)CC3)cc2)O1` (centres unmarked) [Compound 9], the “Percent Mortality” value under setting [1] was determined as 100%. Besides, the “Percent Growth Inhibition” value under setting [2] worked out at 100%.
For the molecule `CC1(C)OC(c2ccc(CN3CCC(C(O)(c4ccc(OC(F)(F)F)cc4)c4ccc(OC(F)(F)F)cc4)CC3)cc2)OC1(C)C` [Compound 122], the “Percent Mortality” value under setting [1] amounted to 100%. For the same molecule, the “Percent Growth Inhibition” value under setting [2] worked out at 100%.

(Values after patent US20090082203A1, “INSECTICIDAL BIS(SUBSTITUTED PHENYL)-1-{[4-(SATURATED HETEROCYCLYL-SUBSTITUTED)PHENYLMETHYL]- (4-PIPERIDYL)}METHANE DERIVATIVES” (priority 2004, published 2009).)
